In patent US12090164B2, “Genotype-agnostic rescue of cystic fibrosis with small molecule bicarbonate channels” (The Board of Trustees of the University of Illinois, priority 2017, dated 2024):
Entries after “also recorded” stand apart in the source; their conditions may differ.

Legend:
[1] = tested on: CuFi-1 (ΔF508/ΔF508) epithelia; assay: ASL pH in cultured CF airway epithelia (SNARF-dextran); type: cell-based, human
Description: (§1) Small diameter NuLi, CuFi, and primary cultured epithelia were used for this experiment (0.33 cm^2). The ratiometric pH indicator SNARF-conjugated dextran (Molecular Probes) was used to measure ASL pH. SNARF powder was suspended via sonication in perfluorocarbon (FC-72, Sigma) and distributed onto the apical surface. ASL pH was measured 2 hr later (3, 4, 25). SNARF was excited at 488 nm and emission was recorded at 580 nm and 640 nm using a Zeiss LSM 800 microscope at 40× water immersion for cell line cultures and a Zeiss LSM 510 microscope for primary cultures. To generate a standard curve for pH determination, SNARF was dissolved in colorless pH standards and fluorescence ratios were converted to pH.
(§2) Agents tested in this assay were first lyophilized into powder and then suspended in the appropriate volume of perfluorocarbon (FC-72, Sigma) and sonicated for 1 minute to suspend. AmBisome should not be sonicated; instead, the fine powder was suspended by vortexing.
(§3) In all experiments, ASL pH of compound-treated epithelia was measured compared the results to vehicle-treated epithelia.
(§4) For apical AmB administration, cultured airway epithelia were incubated for 30 min-48 hrs at 37° C. before measurement of ASL pH. For AmB-cholesterol complex and C35deOAmB administration, cultured airway epithelia were incubated for 48 hrs at 37° C. before measurement of ASL pH. To test the effect of […] ATPase inhibition, AmB was administered 47 hours prior to 10 mM ouabain addition, and cultured airway epithelia were incubated for an additional 1 hr at 37° C. before measurement of ASL pH. For 10 μM ivacaftor/10 μM forskolin administration, cultured airway epithelia were incubated for 2 hrs at 37° C. before measurement of ASL pH (25). For basolateral AmB administration, a 2 mM stock of AmB in DMSO was diluted 1000-fold to a final concentration of 2 μM in USG media. The basolateral media of cultured airway epithelia was replaced with the AmB-containing USG media and incubated for 48 hrs at 37° C. before measurement of ASL pH.

[2] = tested on: CuFi-4 (G551D/ΔF508) epithelia; assay: as above; type: cell-based, human
Description: as §1, §2, §3, §4

[3] = tested on: NuLi (CFTR^+/+) epithelia; assay: ASL pH in non-CF cultured airway epithelia; type: cell-based, human; conditions: apical AmB 2 μM, 48 h
Description: as §1, §2, §3
For apical AmB administration, cultured airway epithelia were incubated for 30 min-48 hrs at 37° C. before measurement of ASL pH. For AmB-cholesterol complex and C35deOAmB administration, cultured airway epithelia were incubated for 48 hrs at 37° C. before measurement of ASL pH. […]

[4] = tested on: CuFi-1 epithelial monolayers; assay: pH-stat titration of apical alkalinization; type: cell-based, human; conditions: AmB 0.5, 1, 2 μM
Description: Large diameter NuLi and CuFi-1 cultured epithelia were used for this experiment (4.67 cm^2). These cultures were mounted in a dual-channel Ussing chamber (Warner U2500) using the culture cup insert for Transwell adapter, 24 mm (U9924T-24). The membranes were bathed at 37° C. on the apical side with a buffer-free solution (140 mM NaCl, 2 mM KCl, 2 mM CaCl2), and 1 mM MgCl2, 15 mM dextrose, gassed with air) and on the basolateral side with either a HCO3^− buffer (120 mM NaCl, 25 mM NaHCO3, 5 mM KCl, 2 mM CaC2, 1.2 mM MgCl2, 13.75 NaH2PO4, 5.6 mM dextrose, pH adjusted to 7.0) or a HCO3^−-free buffer (140 mM NaCl, 2 mM KCl, 2 mM CaCl2), 1 mM MgCl2, 10 mM HEPES, 5 mM dextrose, pH adjusted to 7.0). A microdiameter pH electrode (89231-590) and temperature probe (Radiometer Analytical T201 Temperature Sensor, E51M001) and titration burette attached to a Hach TIM856 NB pH/EP/Stat pH-STAT Titrator (R41T028) were inserted into the apical chamber. The basolateral chamber was covered with the chamber lid to prevent gas exchange. […]
The apical pH was titrated to a target pH of 6.0 using 1 mM HCl as titrant (min speed 0.25 mL/min, max speed 0.35 mL/min) (28, 57-59). Acid titration was measured over 20 minutes to establish a baseline value for the cultured epithelia […]. […] Acid titration was then measured over another 20 minutes to evaluate AmB-mediated pH change in the apical solution. […]

[5] = tested on: non-CF primary cultured epithelia; assay: ASL pH in non-CF primary cultured epithelia; type: cell-based, human; conditions: AmB 2 μM, 48 h
Description: Airway epithelial cells were obtained from human trachea and bronchi of CF and non-CF specimens obtained from the Iowa Donor Network, either as post-mortem specimens or from tissue deemed not fit for transplant. Studies were approved by the University of Iowa Institutional Review Board. After pronase enzymatic digestion, cells were seeded onto collagen-coated semi-permeable membranes (0.33-1.12 cm^2, Corning 3470 polyester, 3460 polyester, 3413 polycarbonate) and grown at an air-liquid interface (52). Airway epithelial cell cultures were analyzed after they had differentiated and at least 14 days post-seeding.
as §1, with “pH. […]” for “pH. SNARF powder was suspended via sonication in perfluorocarbon (FC-72, Sigma) and distributed onto the apical surface.”, “pH. […]” for “pH.”
In all experiments, ASL pH of compound-treated epithelia was measured compared the results to vehicle-treated epithelia. […]

[6] = tested on: ASL of primary CF epithelia; Staphylococcus aureus killed; assay: ASL antibacterial activity (S. aureus-coated gold grids); type: cell-based, human; conditions: 2 μM, 48 h
Description: Staphylococcus aureus-coated gold grids were used to measure antibacterial activity of airway epithelial cultures (3, 4). Small diameter primary cultured epithelia were used for this experiment (0.33 cm^2). Bacteria-coated gold TEM grids were placed onto the apical surface of airway epithelia for 1 min after 48 hours of perfluorocarbon (FC-72, Sigma), 2 μM AmB, or 2 μM C35deOAmB treatment. As controls, bacteria-coated grids were also placed in saline or AmB in FC-72 laid over saline to simulate the administration method for 1 minute. After removal, bacteria on the grids were assessed for viability using Live/Dead BacLight Bacterial Viability assay (Invitrogen). Viability was determined in 4-6 fields to determine the percentages of dead bacteria.

[7] = in vivo; cited from earlier work

C[C@@H]1[C@H](O)[C@@H](C)/C=C/C=C/C=C/C=C/C=C/C=C/C=C/[C@H](O[C@@H]2O[C@H](C)[C@@H](O)[C@H](N)[C@@H]2O)C[C@@H]2O[C@](O)(C[C@@H](O)C[C@@H](O)[C@H](O)CC[C@@H](O)C[C@@H](O)CC(=O)O[C@H]1C)C[C@H](O)[C@H]2C(=O)O [AmB, amphotericin B]
ASL pH, basolateral addition of AmB ([1]; AmB 2 μM basolateral, 48 h): an increase in ASL pH was not observed; also recorded: No increase in pH was observed; also recorded: did not raise ASL pH or increase H^14CO3^− secretion
ASL pH, apical addition ([1]; AmB or C35deOAmB 2 μM, ivacaftor/forskolin 10 μM, 2 h, vs vehicle): increases ASL pH relative to an untreated CuFi-1 control over 2 hours; also recorded: progressive increase in pH over 2 hours; also recorded: increased the ASL pH; also recorded: increased both; also recorded: progressively increased ASL pH over 2 hours
time for which the increase in ASL pH is sustained ([1]; apical AmB 2 μM): at least 48 hours
AmB concentration at which increase in ASL pH reaches a maximum ([1]; apical addition): 2 μM
concentration dependence of ASL pH increase ([1]; increasing concentrations up to 100 μM AmB): increases ASL pH in CuFi-1 monolayers at low but not at high concentrations; also recorded: decreases at higher concentrations; also recorded: ASL pH increased and then fell with progressively increasing concentrations of AmB
increase in ASL pH ([2]; AmB 2 μM, ivacaftor/forskolin 10 μM): ~0.2 unit
ASL pH ([2]; apical AmB 2 μM 48 h, ivacaftor/forskolin 10 μM 2 h): increase ASL pH; also recorded: increased the ASL pH; also recorded: increased ASL pH and H^14CO3^− secretion
ASL pH in non-CF epithelia [3]: No increase in ASL pH was observed
rate of apical alkalinization, bicarbonate free basolateral buffer ([4]; HCO3−-free buffer): no change in rate of apical alkalinization was observed with any tested concentration of AmB; also recorded: not in the absence of basolateral bicarbonate
rate of apical chamber alkalinization, basolateral bicarbonate present ([4]; basolateral bicarbonate 25 mM): increased the rate of apical chamber alkalization of CuFi-1 epithelia in a dose-dependent fashion; also recorded: dose-dependent increase in ASL pH
ASL pH of non-CF primary epithelia [5]: had no effect on the pH of non-CF primary cultured epithelia
ASL antibacterial activity (% of S. aureus killed after exposure to ASL) [6]: increased antibacterial activity for a diverse range of patient genotypes; also recorded: nearly doubled ASL bacterial killing; also recorded: restores ASL pH and antibacterial activity
toxicity to humans [7]: significant toxicity to humans
